Patent US5028590A, “Derivatives of A54145 cyclic peptides” (priority 1988, dated 1991)

Columns and labels:
[1] = system: Staphylococcus epidermidis 222; assay: Agar-dilution MIC, Staphylococcus epidermidis 222; type: cell-based
[2] = system: Staphylococcus epidermidis EPI1; type: cell-based; details: agar dilution
Experimental: (§1) The MIC's in Table IV were determined by conventional agar-dilution assays.

[3] = system: Streptococcus pneumoniae Park 1; type: cell-based; details: agar dilution
Experimental: as §1

[4] = system: Streptococcus sp. group D 2041; assay: Agar-dilution MIC, Streptococcus sp. group D 2041; type: cell-based
Experimental: as §1

[5] = system: Staphylococcus aureus X1.1; assay: Agar-dilution MIC, Staphylococcus aureus X1.1; type: cell-based
Experimental: as §1

[6] = system: Streptococcus sp. group D X66; assay: Agar-dilution MIC, Streptococcus sp. group D X66; type: cell-based
Experimental: as §1

[7] = system: Streptococcus pyogenes C203; assay: Agar-dilution MIC, Streptococcus pyogenes C203; type: cell-based
Experimental: as §1

[8] = system: Staphylococcus aureus V41; assay: Agar-dilution MIC, Staphylococcus aureus V41; type: cell-based
Experimental: as §1

[9] = system: Staphylococcus aureus X400; assay: Agar-dilution MIC, Staphylococcus aureus X400; type: cell-based
Experimental: as §1

[10] = system: Staphylococcus aureus S13E; details: agar dilution
Experimental: as §1

Streptococcus pyogenes = assay: In vivo protection of experimentally infected mice (ED50); details: administered subcutaneously, doses given 1 and 4 hours postinfection
Experimental: The formula 1a compounds have shown in vivo antimicrobial activity against experimentally-induced infections in laboratory animals. When two doses of test compound were administered to mice experimentally infected with Streptococcus pyogenes or Staphylococcus aureus, the activity observed was measured as an ED50 value [effective dose in mg/kg to protect 50% of the test animals: see Warren Wick, et al., J. Bacteriol. 81, 233-235 (1961)].

[11] = Relative toxicity, median lethal dose in mice; type: in vivo; details: administered IP in mice
Source text: Table VI summarizes the relative toxicity of illustrative formula 1a compounds.
^a When administered IP in mice

| Substance | MIC [1] [µg/mL] | MIC [2] [µg/mL] | MIC [3] [µg/mL] | MIC [4] [µg/mL] | MIC [5] [µg/mL] | MIC [6] [µg/mL] | MIC [7] [µg/mL] | MIC [8] [µg/mL] | MIC [9] [µg/mL] | MIC [10] [µg/mL] | ED50 vs. Streptococcus pyogenes (Streptococcus pyogenes) [mg/kg × 2] | Median Lethal Dose [11] [mg/kg] |
| --- | --- | --- | --- | --- | --- | --- | --- | --- | --- | --- | --- | --- |
| NTrp -(n-Tetradecanoyl)-A54145 Nucleus [Compound 26] | 0.5 | 0.5 | 0.125 | 4 | 0.25 | 2 | 0.06 | 0.25 | 0.5 | 0.25 | – | – |
| NTrp -(n-Dodecanoyl)-A54145A Nucleus [Compound 4] | 1 | 1 | 2 | 8 | 1 | 4 | 0.125 | 1 | 1 | 2 | 1.15 | 321 |
| NTrp -(n-Decanoyl)-A54145F Nucleus [Compound 10] | 16 | 16 | 32 | 128 | 16 | 128 | 4 | 16 | 16 | 16 | 10.8 | > 505 |
| NTrp -(n-Undecanoyl)-A54145A Nucleus [Compound 2] | 2 | 2 | 2 | 32 | 2 | 16 | 0.5 | 4 | 4 | 4 | 1.65 | > 520 |
| NTrp -(n-Nonanoyl)-A54154A Nucleus [Compound 6] | 16 | 16 | 64 | – | 32 | 128 | 4 | 32 | 32 | 32 | 10.6 | > 510 |
